Measurements as given in patent US11433140B2, “Specific antibody drug conjugates (ADCs) having KSP inhibitors” (Bayer Pharma Aktiengesellschaft, priority 2016, dated 2022).
Counter-ions that a name gives are not always drawn.

Columns and labels:
Caco-2 cells = assay: Cell permeability, flux assay using Caco-2 cells; format: in vitro ADME; conditions: for Papp (B-A): Caco-2, basal to apical, 2 hours
Experimental: The cell permeability of a substance can be investigated by means of in vitro testing in a flux assay using Caco-2 cells [M. D. Troutman and D. R. Thakker, Pharm. […] For this purpose, the cells were cultured for 15-16 days on 24-well filter plates. For the determination of permeation, the respective test substance was applied in a HEPES buffer to the cells either apically (A) or basally (B) and incubated for 2 hours. After 0 hours and after 2 hours, samples were taken from the cis and trans compartments. The samples were separated by HPLC (Agilent 1200, Böblingen, Germany) using reverse phase columns. The HPLC system was coupled via a Turbo Ion Spray Interface to a Triple Quadropole mass spectrometer API 4000 (AB SCIEX Deutschland GmbH, Darmstadt, Germany).
Of critical importance for toxophores which are released intracellularly is the permeability from B to A [Papp (B-A)] and the ratio of Papp (B-A) to Papp (A-B) (efflux ratio): The lower this permeability, the slower the active and passive transport processes of the substance through the monolayer of Caco-2 cells. If the efflux ratio, moreover, gives no indications as to active transport, the substance, following intracellular release, can remain in the cell for longer. As a consequence, the time available for interaction with the biochemical target (here: kinesin spindle protein KSP/Eg5) also increases.

NCI-H292 = assay: MTT assay, cytotoxic effect on NCI-H292; format: cell-based, human; conditions: Table 2, metabolites, MTT after 96 h
Experimental: NCI-H292: human mucoepidermoid lung carcinoma cells, ATCC-CRL-1848, standard medium: RPMI 1640 (Biochrom; #FG1215, stab. glutamine)+10% FCS (Sigma; #F2442), TWEAKR-positive; EGFR-positive,
(§1) The cells were cultivated by the standard method, with the growth media specified in section C-1. The test was carried out by detaching the cells with a solution of Accutase in PBS (from Biochrom AG #L2143), pelletizing, resuspending in culture medium, counting and sowing into a 96-well culture plate with white bottom (from Costar #3610) (NCI H292: 2500 cells/well; SK-HEP-1: 1000 cells/well; KPL-4: 1200 cells/well; in total volume 100 μl). The cells were then incubated in an incubator at 37° C. and 5% carbon dioxide. After 48 h, the medium was replaced. The antibody drug conjugates in 10 μl of culture medium in concentrations from 10^−5M to 10^−13M were then pipetted to the cells (in triplicate), and the assay was then incubated in an incubator at 37° C. and 5% carbon dioxide. The suspension cells were counted and sown into a 96-well culture plate with white bottom (from Costar #3610) (#3610) (MOLM-13: 2000 cells/well; NB4: 7000 cells/well; MV-4-11: 5000 cells/well in a total volume of 100 μl). After 6 hours of incubation at 37° C. and 5% carbon dioxide, the medium was changed and the antibody-drug conjugates or metabolites were added by pipette in 10 μl of culture medium in concentrations of 10^−5M to 10^−13M to the cells (triplicates) in 90 μl. The batch was incubated in an incubator at 37° C. and 5% carbon dioxide. After 96 h, the cell proliferation was detected using the MTT assay (ATCC, Manassas, Va., USA, catalogue No. 30-1010K). To this end, the MTT reagent was incubated with the cells for 4 h, followed by lysis of the cells overnight by addition of the detergent. The dye formed was detected at 570 nm (Infinite M1000 pro, Tecan). The measured data were used to calculate the IC50 of the growth inhibition using the DRC (dose response curve). The proliferation of cells which were not treated with test substance but were otherwise identically treated was defined as the 100% figure.

SKHep-1 = assay: MTT assay, cytotoxic effect on SK-HEP-1; format: cell-based, human; conditions: Table 2, metabolites, MTT after 96 h
Experimental: SK-HEP-1: human liver cell cancer line, ATCC No. HTB-52, standard medium: MEM with Earle's salts+Glutamax I (Invitrogen 41090)+10% heat inactivated FCS (from Gibco, No. 10500-064); TWEAKR-positive
as §1, with “The proliferation of cells which were not treated with test substance but were otherwise identically treated was defined as the 100% figure.” left out

MOLM-13 = assay: MTT assay, cytotoxic effect on MOLM-13; format: cell-based, human; conditions: Table 2; metabolites; MTT after 96 h
Experimental: (§2) C-1a: Determination of the Cytotoxic Effect of the ADCs Directed Against CD123 and CXCR5
(§3) The analysis of the cytotoxic effect of the exemplary ADCs was carried out with various cell lines:
MOLM-13: human acute monocytic leukaemia cells (AML-M5a), DSMZ, No. ACC 554, standard medium: RPMI 1640 (from Gibco; #21875-059, stab. L-glutamine)+20% heat inactivated FCS (Gibco, No. 10500-064); CD123-positive.
(§4) The cells were cultivated by the standard method, with the growth media specified in section C-1. The test was carried out by detaching the cells with a solution of Accutase in PBS (from Biochrom AG #L2143), pelletizing, resuspending in culture medium, counting and sowing into a 96-well culture plate with white bottom (from Costar #3610) (NCI H292: 2500 cells/well; SK-HEP-1: 1000 cells/well; KPL-4: 1200 cells/well; in total volume 100 μl). […] The suspension cells were counted and sown into a 96-well culture plate with white bottom (from Costar #3610) (#3610) (MOLM-13: 2000 cells/well; NB4: 7000 cells/well; MV-4-11: 5000 cells/well in a total volume of 100 μl). […] After 96 h, the cell proliferation was detected using the MTT assay (ATCC, Manassas, Va., USA, catalogue No. 30-1010K). […] The dye formed was detected at 570 nm (Infinite M1000 pro, Tecan). The measured data were used to calculate the IC50 of the growth inhibition using the DRC (dose response curve). […]

[1] = molecular target: T1, human kinesin spindle protein KSP/Eg5 (Homo sapiens, UniProt P52732); assay: Inhibition of the kinesin spindle protein KSP/Eg5 (ATPase activity, malachite green); format: biochemical; conditions: motor domain 10 nM, microtubuli, ATP 500 μM, 2 h RT
T1 construct: The motor domain of the human kinesin spindle protein KSP/Eg5; purchased tebu-bio/Cytoskeleton Inc 027EG01-XL
T1 sequence (P52732 18-359 limits assumed): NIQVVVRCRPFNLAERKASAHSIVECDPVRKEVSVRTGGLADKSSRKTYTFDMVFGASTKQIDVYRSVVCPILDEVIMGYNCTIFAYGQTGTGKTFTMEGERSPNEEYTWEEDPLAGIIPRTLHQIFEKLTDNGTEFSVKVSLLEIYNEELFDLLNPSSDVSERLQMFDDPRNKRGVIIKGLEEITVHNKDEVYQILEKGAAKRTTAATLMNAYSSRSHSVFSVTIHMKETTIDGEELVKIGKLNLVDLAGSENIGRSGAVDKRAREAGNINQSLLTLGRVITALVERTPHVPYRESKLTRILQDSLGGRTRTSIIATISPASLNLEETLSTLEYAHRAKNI
Experimental: The motor domain of the human kinesin spindle protein KSP/Eg5 (tebu-bio/Cytoskeleton Inc, No. 027EG01-XL) was incubated in a concentration of 10 nM with microtubuli (bovine or porcine, tebu-bio/Cytoskeleton Inc) stabilized with 50 μg/ml taxol (Sigma No. T7191-5MG) for 5 min at RT in 15 mM PIPES, pH 6.8 (5 mM MgCl2 and 10 mM DTT, Sigma). […] Incubation was at RT for 2 h. ATPase activity was detected by detecting the inorganic phosphate formed using malachite green (Biomol). […] The positive controls used were monastrol (Sigma, M8515-1 mg) and ispinesib (AdooQ Bioscience A10486). The individual data of the dose-activity curve are eight-fold determinations. The IC50 values are means of two independent experiments.

MV-4-11 = assay: MTT assay, cytotoxic effect on MV-4-11; format: cell-based, human; conditions: Table 2; metabolites; MTT after 96 h
Experimental: as §2, §3
MV-4-11: human biphenotypic B myelomonocytic leukaemia cells obtained from peripheral blood, ATCC-CRL-9591, standard medium: IMDM (ATCC: 30-2005), +10% heat inactivated FCS (Gibco, No. 10500-064); CD123-positive
as §4

KPL-4 = assay: MTT assay, cytotoxic effect on KPL-4; format: cell-based, human; conditions: Table 2; metabolites; MTT after 96 h
Experimental: KPL4: human breast cancer cell line, Bayer Pharma AG (identity checked and confirmed on 19 Jul. 2012 at DSMZ), standard medium: RPMI 1640 (from Gibco; #21875-059, stab. L-glutamine)+10% heat inactivated FCS (Gibco, No. 10500-064); HER2-positive.
The cells were cultivated by the standard method, with the growth media specified in section C-1. The test was carried out by detaching the cells with a solution of Accutase in PBS (from Biochrom AG #L2143), pelletizing, resuspending in culture medium, counting and sowing into a 96-well culture plate with white bottom (from Costar #3610) (NCI H292: 2500 cells/well; SK-HEP-1: 1000 cells/well; KPL-4: 1200 cells/well; in total volume 100 μl). The cells were then incubated in an incubator at 37° C. and 5% carbon dioxide. After 48 h, the medium was replaced. […] The suspension cells were counted and sown into a 96-well culture plate with white bottom (from Costar #3610) (#3610) (MOLM-13: 2000 cells/well; NB4: 7000 cells/well; MV-4-11: 5000 cells/well in a total volume of 100 μl). […] After 96 h, the cell proliferation was detected using the MTT assay (ATCC, Manassas, Va., USA, catalogue No. 30-1010K). […] The dye formed was detected at 570 nm (Infinite M1000 pro, Tecan). The measured data were used to calculate the IC50 of the growth inhibition using the DRC (dose response curve). […]

| SMILES | Papp (B-A) (Caco-2 cells) [×10⁻⁶ cm/s] | IC50 (NCI-H292; Homo sapiens, NCI-H292) [nM] | IC50 (SKHep-1; Homo sapiens, SK-HEP1) [nM] | IC50 (MOLM-13) [nM] | Efflux ratio compared with the reference metabolites (Caco-2 cells; Caco-2, in words) | Transport from the cell compared with the reference metabolites (Caco-2 cells; Caco-2, in words) | Efflux ratio (Caco-2 cells; Caco-2, ratio of Papp (B-A) to Papp (A-B)) | IC50 (NCI-H292) [nM] | IC50 (SKHep-1) [nM] | IC50 [1] [nM] | IC50 (MV-4-11) [nM] | IC50 (KPL-4) [nM] |
| --- | --- | --- | --- | --- | --- | --- | --- | --- | --- | --- | --- | --- |
| CC(C)(C)[C@H](c1cc(-c2cc(F)ccc2F)cn1Cc1ccccc1)N(CC[C@H](N)C(=O)NCCNC(=O)CNC(=O)CC(SC[C@H](N)C(=O)O)C(=O)O)C(=O)CO (mixture of isomers) [Example Rm1, 4-[(2-{[2-({(2S)-2-Amino-4-[{(1R)-1-[1-benzyl-4-(2,5-difluorophenyl)-1H-pyrrol-2-yl]-2,2-dimethylpropyl}(glycoloyl)amino]butanoyl}amino)ethyl]amino}-2-oxoethyl)amino]-2-{[(2R)-2-amino-2-carboxyethyl]sulfanyl}-4-oxobutanoic Acid Trifluoroacetic Acid Salt] | 1.3 | 63.6 | 19 | – | – | – | – | – | – | – | – | – |
| CC(C)(C)[C@H](c1cc(-c2cc(F)ccc2F)cn1Cc1ccccc1)N(CC[C@H](N)C(=O)NCCNC(=O)CNC(=O)C(CC(=O)O)SC[C@H](N)C(=O)O)C(=O)CO (mixture of isomers) [Example Rm2, 4-[(2-{[2-({(2S)-2-Amino-4-[{(1R)-1-[1-benzyl-4-(2,5-difluorophenyl)-1H-pyrrol-2-yl]-2,2-dimethylpropyl}(glycoloyl)amino]butanoyl}amino)ethyl]amino}-2-oxoethyl)amino]-3-{[(2R)-2-amino-2-carboxyethyl]sulfanyl}-4-oxobutanoic Acid Trifluoroacetic Acid Salt] | – | 276 | 89 | – | – | – | – | – | – | – | – | – |
| CC(C)(C)[C@H](c1cc(-c2cc(F)ccc2F)cn1Cc1ccccc1)N(CC[C@H](N)C(=O)NCCNC(=O)[C@@H](CCC(=O)O)NC(=O)CNC(=O)CC(SC[C@H](N)C(=O)O)C(=O)O)C(=O)CO.O=C(O)C(F)(F)F (stereo partly drawn) [Example M1, N-(3-{[(2R)-2-Amino-2-carboxyethyl]sulfanyl}-3-carboxypropanoyl)glycyl-N-[2-({(25)-2-amino-4-[{(1R)-1-[1-benzyl-4-(2,5-difluorophenyl)-1H-pyrrol-2-yl]-2,2-dimethylpropyl}(glycoloyl)amino]butanoyl}amino)ethyl]-D-alpha-glutamine trifluoroacetic Acid Salt] | 0.12 | – | – | 125 | reduced efflux ratio | reduced transport from the cell | 0.8 | 500 | 98.8 | 2.13 | 302 | 500 |
